Experimental findings from ChEMBL document CHEMBL4130627, “Prodrugs of the Phosphoribosylated Forms of Hydroxypyrazinecarboxamide Pseudobase T-705 and Its De-Fluoro Analogue T-1105 as Potent Influenza Virus Inhibitors” (J Med Chem, 2018) are described below.

Data set [1] has as its system MDCK. In words: Prodrug activation in MDCK cells assessed as T-705-RMP formation at 714 uM after 25 hrs by RP-HPLC-UV analysis. The following applies: dog. The format is cell-based, Canis lupus familiaris.
A short description of data set [2]: Cytotoxicity against MDCK cells assessed as change in cell morphology after 3 days by microscopic analysis. The format is cell-based, Canis lupus familiaris. As to conditions: dog.
Data set [3] in a line: Cytotoxicity against HGPRT deficient 6-thioguanine-resistant MDCK cells assessed as change in cell morphology after 3 days by microscopic analysis. The format is cell-based, Canis lupus familiaris. The following applies: dog.
Data set [4] can be described thus: Cytotoxicity against MDCK cells assessed as reduction in cell viability after 3 days by formazan-based MTS assay. As to conditions: dog. Also noted: species or system Canis lupus familiaris. (Tetrazolium dyes change colour on reduction, which living cells bring about.)
Data set [5] relates to MDCK. In words: Prodrug activation in MDCK cells assessed as parent compound remaining at 714 uM after 25 hrs by RP-HPLC-UV analysis. The format is cell-based, Canis lupus familiaris. As to conditions: dog.
Data set [6] relates to MDCK. The format is cell-based, Canis lupus familiaris. As to conditions: dog, 714 µM.
Data set [7] relates to MDCK. The format is cell-based, Canis lupus familiaris. The following applies: dog, 714 µM. This is another data set of the same source.
The subject of data set [8] is Influenza B virus. In words: microbe, parasite or virus in culture. The following applies: Ned/537/05, MDCK, 72 h.
Description: Antiviral activity against Influenza virus B/Ned/537/05 infected in MDCK cells assessed as reduction in viral replication at 3 days post infection by formazan-based MTS assay
Data set [9] deals with Influenza A virus. The format is functional, organism-based. As to conditions: Influenza A virus (A/X-31(H3N2)); MDCK; 25 uM.
Data set [10] concerns Influenza A virus. Briefly: microbe, parasite or virus in culture. As to conditions: MDCK, 72 h.
Description: Antiviral activity against Influenza virus A/X-31 infected in MDCK cells assessed as reduction in viral replication at 3 days post infection by microscopic analysis
For data set [11], the system named is Influenza B virus. In words: microbe, parasite or virus in culture. The following applies: Ned/537/05, MDCK, 72 h. The source holds these as a separate data set.
Description: Antiviral activity against Influenza virus B/Ned/537/05 infected in MDCK cells assessed as reduction in viral replication at 3 days post infection by microscopic analysis
Data set [12] concerns Influenza A virus. The format is functional, organism-based. As to conditions: Influenza A virus (A/X-31(H3N2)); MDCK; 12 to 50 uM.
Data set [13] relates to Influenza A virus. Briefly: microbe, parasite or virus in culture. The following applies: MDCK, 72 h. The source holds these as a separate data set.
Description: Antiviral activity against Influenza virus A/X-31 infected in MDCK cells assessed as reduction in viral replication at 3 days post infection by formazan-based MTS assay
In data set [14] the test system is Influenza A virus. The format is functional, organism-based. As to conditions: Influenza A virus (A/X-31(H3N2)); MDCK; 250 uM.
Data set [15] concerns Influenza A virus. The format is functional, organism-based. As to conditions: Influenza A virus (A/X-31(H3N2)); MDCK; 12 to 50 uM. The source holds these as a separate data set.
Data set [16] concerns Influenza A virus. The format is functional, organism-based. As to conditions: Influenza A virus (A/X-31(H3N2)); MDCK; 25 uM. This is another data set of the same source.
Data set [17] deals with Influenza A virus. The format is functional, organism-based. As to conditions: Influenza A virus (A/X-31(H3N2)); MDCK; 25 uM. This is another data set of the same source.
For data set [18], the system named is MDCK. In words: Prodrug activation in MDCK cells assessed as parent compound remaining at 714 uM after 19 hrs by RP-HPLC-UV analysis. The format is cell-based, Canis lupus familiaris. As to conditions: dog.
The subject of data set [19] is Influenza A virus. The format is functional, organism-based. As to conditions: Influenza A virus (A/X-31(H3N2)); MDCK; 25 uM. This is another data set of the same source.
The subject of data set [20] is MDCK. Briefly: Prodrug activation in MDCK cells assessed as T-1105-RMP formation at 714 uM after 19 hrs by RP-HPLC-UV analysis. The format is cell-based, Canis lupus familiaris. The following applies: dog.
Data set [21] has as its system unidentified influenza virus. In words: Antiviral activity against Influenza virus infected in human A549 cells. The format is functional.
Data set [22] deals with Influenza A virus. The format is functional, organism-based. The following applies: Influenza A virus (A/X-31(H3N2)); MDCK; 250 uM. This is another data set of the same source.
A short description of data set [23]: Stability of the compound in phosphate buffer at pH 7.3 after 30 hrs by RP-HPLC chromatogram analysis. The following applies: pH 7.3, 30 h. The format is physicochemical.
In data set [24] the target is T1, Liver carboxylesterase (Sus scrofa, UniProt Q29550).
T1 sequence (Q29550 whole entry): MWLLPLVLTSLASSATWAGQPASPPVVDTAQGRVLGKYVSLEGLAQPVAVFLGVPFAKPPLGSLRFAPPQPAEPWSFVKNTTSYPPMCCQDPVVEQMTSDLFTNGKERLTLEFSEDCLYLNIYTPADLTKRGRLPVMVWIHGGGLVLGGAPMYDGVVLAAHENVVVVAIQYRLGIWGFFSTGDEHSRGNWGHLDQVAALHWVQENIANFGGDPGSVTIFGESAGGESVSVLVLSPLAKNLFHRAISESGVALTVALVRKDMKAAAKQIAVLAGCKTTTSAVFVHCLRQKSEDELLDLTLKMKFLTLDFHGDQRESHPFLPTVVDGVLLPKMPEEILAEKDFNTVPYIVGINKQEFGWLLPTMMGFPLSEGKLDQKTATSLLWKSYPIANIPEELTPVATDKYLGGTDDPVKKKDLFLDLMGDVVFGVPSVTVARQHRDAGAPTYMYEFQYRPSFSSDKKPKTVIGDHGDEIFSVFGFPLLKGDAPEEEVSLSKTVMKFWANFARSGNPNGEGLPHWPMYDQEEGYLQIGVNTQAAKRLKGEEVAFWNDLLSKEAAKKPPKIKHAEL
In words: Prodrug activation assessed as pig liver esterase mediated metabolite formation after 30 hrs by RP-HPLC chromatogram analysis. The format is ADME. The following applies: isolated protein.

Data set [25] is described as follows: Prodrug activation in phosphate buffer at pH 7.3 assessed as metabolite formation after 30 hrs by RP-HPLC chromatogram analysis. The following applies: pH 7.3, 30 h. The format is physicochemical.
Data set [26] addresses T1, Liver carboxylesterase. Briefly: Drug metabolism assessed as pig liver esterase mediated 4-((((((2R,3S,4R,5R)-5-(3-carbamoyl-5-fluoro-2-oxopyrazin-1(2H)-yl)-3,4-dihydroxytetrahydrofuran-2-yl)methoxy)(hydroxy)phosphoryloxy)(hydroxy)[…])methyl)phenyl pentanoate formation at 450 uM after 2 hrs by RP-HPLC chromatogram analysis. The format is ADME. The following applies: isolated protein.

Active and inactive are the calls of the source. The rule behind the calls is not given here. Bounds are passed on as bounds.

One may read the CC50 as the concentration giving 50% cytotoxicity. For orientation: EC50 means the concentration that produces a half-maximal response. Read a high EC50 as a need for much substance. By EC99 is commonly meant the point of the concentration-response curve where the effect stands at 99%.

As for `NC(=O)c1nc(F)c[nH]c1=O`, the values for the Drug metabolism entry in the data set with MDCK [1] and in the data set with MDCK [6] were “Metabolite_Detected” and “Metabolite_Notdetected”, respectively. The MCC at 72 h in [2] and in data set [3] was above 250 µM each time. The cytotoxic concentration (CC50) at 72 h in [4] is above 250 µM. In addition, the Stability in the data set on MDCK [5] is reported as 65%.

`NC(=O)c1nccnc1O`: the values for the Drug metabolism result in the data set with MDCK [7] and with MDCK [20] were “Metabolite_Notdetected” and “Metabolite_Detected”, respectively. For the same compound, the MCC at 72 h in data set [2] and in data set [3] was above 250 µM throughout. Besides, the EC50 is 2.1 µM in the data set on Influenza B virus [8], 6.4 µM with Influenza A virus [10], 2.8 µM in the data set with Influenza B virus [11] and 5.4 µM in the data set on Influenza A virus [13]. In addition, the inhibition entry in the data set on Influenza A virus [9], in the data set on Influenza A virus [12], with Influenza A virus [14], in the data set with Influenza A virus [15], with Influenza A virus [16] and with Influenza A virus [22] was “Active” each time. Further, in data set [4], the CC50 at 72 h is above 250 µM. Also, the inhibition result in the data set on Influenza A virus [17] and in the data set on Influenza A virus [19] was “inactive” each time. The Stability with MDCK [18] is listed as 10%. The compound further had an EC99 in data set [21] of 134 µM.

Consider `CCCCCCCCCCCCCCC(=O)Oc1ccc(COP(=O)(OCc2ccc(OC(=O)CCCC)cc2)OP(=O)(O)OC[C@H]2O[C@@H](n3cc(F)nc(C(N)=O)c3=O)[C@H](O)[C@@H]2O)cc1.CCN(CC)CC` (stereo partly specified), for which the MCC at 72 h amounted to 21 µM in data set [2] and 16 µM in data set [3]. The concentration giving a half-maximal response (EC50) came out at 3.5 µM in the data set on Influenza B virus [8], 5.4 µM in the data set on Influenza A virus [10], 7.2 µM in the data set with Influenza B virus [11] and 10 µM in the data set on Influenza A virus [13]. For the same compound, in data set [4], the CC50 at 72 h came out at 35 µM. The Stability entry in [23] is recorded as “Unstable”. The Drug metabolism result at Liver carboxylesterase [24] is on record as “Metabolite_Notdetected”; in [25], “Metabolite_Notdetected”; at Liver carboxylesterase [26] it was “Metabolite_Detected”.
